In assay [1] the test system is SH5190. The assay is classed as cell-based, A/Shanghai/5190/2013(H7N9).
The test system of assay [2] is SH5190. It is filed as cell-based, A/Shanghai/5190/2013(H7N9). The source holds these as a separate data set.

Each structure is given as a SMILES string. Bounds are passed on as bounds.

As to `CCC(CC)O[C@@H]1C=C(C(=O)O)C[C@H](N)[C@H]1NC(C)=O` [Oseltamivir carboxylate], the plaque mean diameter in the assay on SH5190 [1] was less than 0.1 mm.
Consider `CC(=O)Oc1ccccc1C(=O)Nc1ncc([N+](=O)[O-])s1` [NT-300, nitazoxanide], for which, in the assay with SH5190 [2], the “times more potent than T-705 and ribavirin” value was “over 25 times”.
